The test system of experiment [1] is P388 murine leukemia cells. Description: cell proliferation assay. It is filed as cell-based.
Experiment [2] has as its system P388 murine leukemia cells. Particulars: background, natural peloruside A; cited from earlier work.
Setting [3] is: Mus musculus, P388 murine leukemia cells.

Here are results for five molecules from US8580975B2, “Synthesis of macrocyclic cancer chemotherapy agents and methods of use” (Purdue Research Foundation, priority 2008, dated 2013).

For orientation: IC50 means the concentration needed to halve the response being measured. A high value points to weaker potency.

In experiment [1] (Mus musculus, P388), `CC[C@H](/C=C(/C)[C@@H]1C[C@@H](OC)C[C@H](O)C(C)(C)C(=O)[C@H](O)[C@H](OC)C[C@@H](O)C[C@@H](OC)CC(=O)O1)CO` [Open Chain Isomer Of 2-Des-Hydroxy-Peloruside A] registered a concentration for half-maximal inhibition (IC50) greater than 5 µM.
Take `CC[C@H](/C=C(/C)[C@@H]1C[C@@H](OC)C[C@H](O)C(C)(C)[C@@]2(O)O[C@@H](C[C@@H](OC)CC(=O)O1)C[C@@H](OC)[C@H]2O)CO` [2-des-Hydroxy-Peloruside A]: the IC50 in experiment [1] (setting [3]) was determined as 0.12 µM.
epi-C-11 Peloruside A had an IC50 in experiment [1] (P388 murine leukemia cells) of 0.01 µM.
In turn, (+)-Peloruside A [reference compound] came in with an IC50 in experiment [1] (P388 murine leukemia cells) of 0.01 µM. Besides, in experiment [2], the “IC50 value, antitumor activity against P388 murine leukemia cells” value was 0.01 µg/mL.
On to `CC[C@H](/C=C(/C)[C@@H]1C[C@@H](OC)C[C@H](O)C(C)(C)[C@@]2(O)O[C@@H](C[C@@H](OC)CC(=O)O1)C[C@@H](O)[C@H]2O)CO` [2-des-Hydroxy-7-des-methoxy-7-hydroxy-Peloruside A], for which the IC50 in experiment [1] (setting [3]) turned out to be 0.32 µM.
